# Earlier results, collected in patent publication US20020187165A1, “Composition for female sexual arousal” (Joseph F. Long, priority 2001, published 2002).
# Conditions: following oral administration
smiles,measurement,value
Cn1cc([S+](C)[O-])c(=O)c2ccc(F)cc21 (stereo not shown) [flosequinan],time of peak plasma concentrations,1 to 2 h
